Converted amounts (≈) assume the structure as drawn. Like-named read-outs stand apart in the source and are kept apart here.
Columns and labels:
[1] = test system: Staphylococcus aureus Smith; assay: Antimicrobial activity, MIC by agar dilution method (Staphylococcus aureus Smith); assay type: cell-based; conditions: read-out: MIC (Staphylococcus aureus Smith)
Protocol: (§1) The minimum growth inhibition concentration (MIC) of the compounds of the present invention against various bacteria was measured by means of an agar dilution method using Muller-Hinton medium, which is shown in the following Table.

L 1210 leukemia cells = assay: Growth inhibition activity against cultured carcinoma cells (L 1210 leukemia cells); assay type: cell-based; conditions: Mus musculus, L1210, 72 h, read-out: L 1210 IC50 (50%-inhibition concentration against growth)
Protocol: (B) Growth inhibition activity against cultured carcinoma cells:
After the incubation, the number of the cells was counted and the activity was evaluated.

[2] = biological target: T1, tyrosine-specific protein-kinase (epidermal growth factor receptor-kinase, A-431 membrane fraction) (Homo sapiens, UniProt P00533); assay: TPK-I activity (inhibition of tyrosine-specific protein-kinase / epidermal growth factor receptor-kinase, 32P-ATP, A-431 membrane fraction); assay type: biochemical
T1 construct: a membrane fraction of human epidermal carcinoma cells A-431 was used; endogenous in cells; host or cells: A-431 human epidermal carcinoma cells, membrane fraction
T1 sequence (P00533 25-1210): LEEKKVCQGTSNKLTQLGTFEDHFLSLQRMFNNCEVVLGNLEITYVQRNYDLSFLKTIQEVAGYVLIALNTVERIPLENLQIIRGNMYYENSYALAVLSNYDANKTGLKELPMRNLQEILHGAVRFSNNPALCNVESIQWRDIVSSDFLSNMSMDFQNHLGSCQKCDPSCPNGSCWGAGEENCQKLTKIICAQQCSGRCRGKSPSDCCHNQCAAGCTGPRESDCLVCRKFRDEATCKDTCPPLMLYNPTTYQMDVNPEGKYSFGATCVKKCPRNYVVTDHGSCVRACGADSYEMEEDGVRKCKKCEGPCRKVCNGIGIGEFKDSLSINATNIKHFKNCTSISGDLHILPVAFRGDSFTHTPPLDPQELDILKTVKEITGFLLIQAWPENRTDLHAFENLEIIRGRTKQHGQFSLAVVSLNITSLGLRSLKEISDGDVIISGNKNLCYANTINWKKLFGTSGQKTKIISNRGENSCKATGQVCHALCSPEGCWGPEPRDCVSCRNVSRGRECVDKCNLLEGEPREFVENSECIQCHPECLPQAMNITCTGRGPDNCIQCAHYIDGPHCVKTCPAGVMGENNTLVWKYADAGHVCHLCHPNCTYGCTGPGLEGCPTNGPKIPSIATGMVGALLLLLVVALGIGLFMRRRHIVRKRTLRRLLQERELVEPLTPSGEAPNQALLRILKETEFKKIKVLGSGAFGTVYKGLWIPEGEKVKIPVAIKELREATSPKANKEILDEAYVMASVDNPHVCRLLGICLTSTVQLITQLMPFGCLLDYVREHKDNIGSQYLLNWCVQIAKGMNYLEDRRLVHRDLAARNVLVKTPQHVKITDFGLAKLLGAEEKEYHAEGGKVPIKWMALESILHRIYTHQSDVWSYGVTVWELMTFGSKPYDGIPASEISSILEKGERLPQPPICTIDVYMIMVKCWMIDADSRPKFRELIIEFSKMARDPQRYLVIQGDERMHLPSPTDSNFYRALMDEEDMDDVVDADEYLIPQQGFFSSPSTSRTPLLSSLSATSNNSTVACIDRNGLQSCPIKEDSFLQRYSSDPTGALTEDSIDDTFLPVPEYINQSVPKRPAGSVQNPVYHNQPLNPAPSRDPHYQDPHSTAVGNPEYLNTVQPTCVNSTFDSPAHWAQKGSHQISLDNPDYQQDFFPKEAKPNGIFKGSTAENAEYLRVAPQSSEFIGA
Protocol: 50 μl of the reaction mixture was sampled and absorbed to Wattman No. 3MM filter membrane and dipped in an ice-cooled TCA. After kept for 30 minutes, the filter membrane was taken out and washed out TCA, ethanol and ether, and the count of ^32 P as stuck to the said filter membrane was measured (a). The same reaction and treatment were carried out, where the test substance only was excluded, and the count of ^32 P on the filter was measured in the same manner (b). Further, the values as measured in the cases where the membrane fraction was excluded were (a') and (b'), respectively. Thus, the percentage of the inhibition of the epiderman growth factor receptor-kinase was calculated from the formula of […].
The TPK-I activity of typical compounds of the present invention was extremely high at a low concentration, as shown in the following Table.

Psudomonas aeruginosa A3 = assay: Antimicrobial activity, MIC by agar dilution method (Psudomonas aeruginosa A3); assay type: cell-based; conditions: read-out: MIC (Psudomonas aeruginosa A3)
Protocol: as §1

[3] = biological target: T1, tyrosine-specific protein-kinase (epidermal growth factor receptor-kinase, A-431 membrane fraction); conditions: MH435-A, earlier application; cited from earlier work
various bacteria = conditions: MH435-A, earlier application; cited from earlier work
cultured carcinoma cells = conditions: MH435-A, earlier application; cited from earlier work
[4] = agar dilution method, Muller-Hinton medium
[5] = L 1210 leukemia cells, 3 days, 37° C., 5% CO2
[6] = A-431 membrane fraction, EGF, histone, pH 7.4, 0° C., 30 minutes, read-out: TPK-I IC50 (converted)

With `[C-]#[N+]C=Cc1cc(Br)ccc1O` [Compound 2, 2-(5-bromo-2-hydroxyphenyl)vinylisocyanide] the MIC [1, 4] was 6.25 µg/mL (≈ 27.9 µM), the IC50 (L 1210 leukemia cells; [5]) was 0.25 µg/mL (≈ 1.12 µM) and the IC50 [2, 6] was greater than 28.6 µM. The MIC (Psudomonas aeruginosa A3; [4]) was 12.5 µg/mL (≈ 55.8 µM).

`[C-]#[N+]C=Cc1cc(OC)ccc1OC` [Compound 3, 2-(2,5-dimethoxyphenyl)vinylisocyanide] gave an MIC [1] of 3.12 µg/mL (≈ 16.5 µM), an IC50 (L 1210 leukemia cells) of 0.65 µg/mL (≈ 3.44 µM) and an IC50 [2] greater than 52.9 µM. The MIC (Psudomonas aeruginosa A3) was 25 µg/mL (≈ 132 µM).

`O=CNC=Cc1cc(Br)ccc1O` [Compound 9, (2-formamidovinyl)-5-bromo-2-hydroxybenzene] showed an MIC [1, 4] of 100 µg/mL (≈ 413 µM), an IC50 (L 1210 leukemia cells; [5]) of 12 µg/mL (≈ 49.6 µM) and an IC50 [2, 6] greater than 26.4 µM. For the same compound, the MIC (Psudomonas aeruginosa A3; [4]) was greater than 50 µg/mL.

With `COc1ccc(OC)c(C=CNC=O)c1` [Compound 10, (2-formamidovinyl)-2,5-dimethoxybenzene] the MIC [1, 4] was greater than 100 µg/mL, the IC50 (L 1210 leukemia cells; [5]) was 62 µg/mL (≈ 299 µM) and the IC50 [2, 6] was greater than 145 µM. It also gave an MIC (Psudomonas aeruginosa A3; [4]) greater than 100 µg/mL.

In the case of `COc1ccc(O)c(C=CNC=O)c1` [Compound 11, (2-formamidovinyl)-2-hydroxy-5methoxybenzene], the MIC [1, 4] is reported as greater than 100 µg/mL, the IC50 (L 1210 leukemia cells; [5]) is reported as 23 µg/mL (≈ 119 µM) and the IC50 [2, 6] is reported as greater than 33.1 µM. It also gave an MIC (Psudomonas aeruginosa A3; [4]) greater than 50 µg/mL.

Work on `O=CNC=Cc1ccccc1O` [Compound 12, (2-formamidovinyl)-2-hydroxybenzene] yielded an MIC [1, 4] greater than 100 µg/mL, an IC50 (L 1210 leukemia cells; [5]) of 30 µg/mL (≈ 184 µM) and an MIC (Psudomonas aeruginosa A3; [4]) greater than 50 µg/mL.

With `O=CNC=Cc1cccc(O)c1O` [Compound 13, (2-formamidovinyl)-2,3-dihydroxybenzene] the MIC [1, 4] was 100 µg/mL (≈ 558 µM), the IC50 (L 1210 leukemia cells; [5]) was 2.2 µg/mL (≈ 12.3 µM) and the IC50 [2, 6] was 1.67 µM. It also gave an MIC (Psudomonas aeruginosa A3; [4]) of 100 µg/mL (≈ 558 µM).

Compound `O=CNC=Cc1ccc(O)c(O)c1` [Compound 14, (2-formamidovinyl)-3,4-dihydroxybenzene] has an MIC [1, 4] greater than 50 µg/mL, an IC50 (L 1210 leukemia cells; [5]) of 22 µg/mL (≈ 123 µM) and an IC50 [2, 6] of 7.26 µM. It also gave an MIC (Psudomonas aeruginosa A3; [4]) of 25 µg/mL (≈ 140 µM).

`CC(=O)NC=Cc1cc(O)ccc1O` [Compound 18, (2-acetamidovinyl)-2,5-dihydroxybenzene] gave an IC50 (L 1210 leukemia cells; [5]) of 3 µg/mL (≈ 15.5 µM) and an IC50 [2, 6] of 15.5 µM.

For `O=CNC=Cc1cc(O)ccc1O` [MH435-A], the “inhibition of tyrosine-specific protein-kinase activity (in words)” value [3] is listed as “can inhibit the said protein-kinase activity in a low concentration”, the “antimicrobial activity (in words)” value (various bacteria) is listed as “has antimicrobial activity” and the “antitumor activity (in words)” value (cultured carcinoma cells) is listed as “antitumor activity”.

Reference: patent US4925877A, “Physiologically active erbstatin analogue compounds and compositions” (Zaidanhojin Biseibutsu Kagaku Kenkyukai, priority 1986, dated 1990)
